In PubChem BioAssay (NCI):
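How tested: cells in 96-well plates exposed to compound for 48 hours at five concentrations. GI50: concentration for 50% inhibition of growth. TGI marks complete inhibition of growth.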

Assays:
Test in all cases: inhibition of tumour cell growth, NCI panel, 48 h
M14 melanoma = test system: M14 melanoma
RPMI-8226 leukemia = test system: RPMI-8226 leukemia
TK-10 renal = test system: TK-10 renal
HOP-62 NSCLC = test system: HOP-62 NSCLC
UACC-62 melanoma = test system: UACC-62 melanoma
SK-OV-3 ovarian = test system: SK-OV-3 ovarian
HCT-15 colon = test system: HCT-15 colon
SN12C renal = test system: SN12C renal
MOLT-4 leukemia = test system: MOLT-4 leukemia
OVCAR-4 ovarian = test system: OVCAR-4 ovarian

Row | SMILES | TGI (M14 melanoma) | TGI (RPMI-8226 leukemia) | TGI (TK-10 renal) | TGI (HOP-62 NSCLC) | TGI (UACC-62 melanoma) | TGI (SK-OV-3 ovarian) | TGI (HCT-15 colon) | TGI (SN12C renal) | TGI (MOLT-4 leukemia) | TGI (OVCAR-4 ovarian) | GI50 (MOLT-4 leukemia) | GI50 (M14 melanoma) | GI50 (OVCAR-4 ovarian) | GI50 (RPMI-8226 leukemia) | GI50 (TK-10 renal) | GI50 (HOP-62 NSCLC) | GI50 (UACC-62 melanoma) | GI50 (SK-OV-3 ovarian) | GI50 (HCT-15 colon) | GI50 (SN12C renal)
1 | CN(CC(=O)O)c1ccc(/C=C/c2ccnc3ccccc23)cc1 | 67.7 µM | 57.5 µM | 47.7 µM | > 100 µM | 52.2 µM | 91.6 µM | > 100 µM | 92.8 µM |  |  |  |  |  |  |  |  |  |  |  | 
2 | O=c1c2cc(Br)ccc2nc(-c2ccccc2Cl)n1NCC1(O)OCC(O)C(O)C1O (stereo not given) | > 100 µM | > 100 µM |  | > 100 µM | > 100 µM | > 100 µM | > 100 µM | > 100 µM | > 100 µM | > 100 µM |  |  |  |  |  |  |  |  |  | 
3 | CN(C)CCNC(=O)c1ccc(C(=O)NCCN(C)C)c2nc3ccccc3cc12 | 3.44 µM |  | 5.08 µM | 4.45 µM | 2.38 µM | 7.5 µM | 16.9 µM | 8.96 µM | 1.56 µM | 3.52 µM |  |  |  |  |  |  |  |  |  | 
4 | O=C(O)C12C3C4C1C1C2C3C1(Br)C41OCCO1 (stereo not given) |  | > 100 µM | > 100 µM | > 100 µM |  | > 100 µM |  |  | > 100 µM |  |  |  |  |  |  |  |  |  |  | 
5 | COc1ccc(C2=NN(C(=O)COc3ccc(Cl)cc3)C(O)(c3ccc(Cl)cc3)C2)cc1 (stereo not given) | > 100 µM | > 100 µM | > 100 µM | > 100 µM | > 100 µM | > 100 µM | > 100 µM | > 100 µM | > 100 µM | > 100 µM |  |  |  |  |  |  |  |  |  | 
6 | C[C@H]1[C@H](C)CC[C@]2(C(=O)N3CCN(C)CC3)CC[C@]3(C)C(=CC[C@@H]4[C@@]5(C)C/C(=C/c6cccnc6)C(=O)C(C)(C)[C@@H]5CC[C@]43C)[C@H]12 | 2.3 µM | 4.15 µM | 3.04 µM | 3.11 µM | 2.52 µM | 3.22 µM | 2.45 µM | 2.65 µM | 5.75 µM | 2.48 µM | 1920 nM | 0.802 µM | 1.07 µM | 1.49 µM | 1.54 µM | 1.58 µM | 1.15 µM | 1.71 µM | 0.96 µM | 1.15 µM
7 | CC(C)C[C@H](NC(=O)[C@H]1O[C@@H]1C(=O)O)C(=O)NCCc1ccc(O)cc1 | > 100 µM | > 100 µM | > 100 µM | > 100 µM | > 100 µM | > 100 µM | > 100 µM | > 100 µM | > 100 µM |  | > 100000 nM | > 100 µM |  | > 100 µM | > 100 µM | > 100 µM | > 100 µM | > 100 µM | > 100 µM | > 100 µM
8 | CCCCCCC#Cc1ccccc1C#CCO | 74.9 µM | 31.4 µM | 61.4 µM | 48.3 µM | 43.6 µM | 34.4 µM | > 100 µM | 39.7 µM |  | 81.6 µM |  | 28.4 µM | 24.5 µM | 15 µM | 22.6 µM | 22.4 µM | 19.1 µM | 18.4 µM | 35.9 µM | 19.4 µM
9 | CC(/C(=N/NC(=O)C(N)=O)c1c(Cl)ccc(Cl)c1O)C1(O)C(=O)Nc2ccccc21 (stereo not given) | > 100 µM |  | > 100 µM | > 100 µM | > 100 µM | > 100 µM | > 100 µM | > 100 µM |  | 92.3 µM |  |  |  |  |  |  |  |  |  | 
